Legend:
HT29 cells = experiment: CHK1 Cellular Assay - Gemcitabine EC50 Assay; format: cell-based; details: HT29 cells, in the presence of gemcitabine at 10 nM, 72 hours, SRB staining; read-out: CHK1 Cellular Activity (EC50 range)
Description: The gemcitabine EC50 assay was developed as a rapid method for screening CHK1 inhibitors to determine their relative cell activity. This assay utilises a feature of the effect of CHK1 inhibitors on gemcitabine toxicity. In the absence of a CHK1 inhibitor, gemcitabine acts predominantly as an anti-metbolite and therefore induces very little cell death, even at high concentrations. This can be as high as 70-80% survival at concentrations in excess of 1 μM. However, in the presence of a CHK1 inhibitor, the mechanism of action of gemcitabine switches to a more classical cytotoxic mode of action. For example, the fraction of cells surviving can be reduced to around 30% and below. Concentrations of gemcitabine can be selected that in the absence of a CHK1 inhibitor, have no effect on cell survival but in the presence of a CHK1 inhibitor are highly cytotoxic. 10000 HT29 cells were plated per well of a 96 well plate and allowed to attach at 37° C. in a 5% CO2 humidified incubator for 18 hours. CHK1 inhibitors were then titrated in the presence of 10, 15 and 20 nM gemcitabine for 72 hours and the EC50 determined by staining with sulforhodamine B (SRB) and determining the absorbance at 540 nm.

CHK1 = biological target: T1, CHK1 (Homo sapiens, UniProt O14757); experiment: CHK1 Enzyme Assay (phosphorylation of Chktide peptide, 33P-ATP filter assay); format: biochemical; details: 12.5 nM His-CHK1, 0.01 mM ATP, 40 minutes at 30° C.; read-out: CHK1 Enzyme Activity (IC50 range)
T1 construct: His; purchased Invitrogen
T1 sequence (O14757 1-476): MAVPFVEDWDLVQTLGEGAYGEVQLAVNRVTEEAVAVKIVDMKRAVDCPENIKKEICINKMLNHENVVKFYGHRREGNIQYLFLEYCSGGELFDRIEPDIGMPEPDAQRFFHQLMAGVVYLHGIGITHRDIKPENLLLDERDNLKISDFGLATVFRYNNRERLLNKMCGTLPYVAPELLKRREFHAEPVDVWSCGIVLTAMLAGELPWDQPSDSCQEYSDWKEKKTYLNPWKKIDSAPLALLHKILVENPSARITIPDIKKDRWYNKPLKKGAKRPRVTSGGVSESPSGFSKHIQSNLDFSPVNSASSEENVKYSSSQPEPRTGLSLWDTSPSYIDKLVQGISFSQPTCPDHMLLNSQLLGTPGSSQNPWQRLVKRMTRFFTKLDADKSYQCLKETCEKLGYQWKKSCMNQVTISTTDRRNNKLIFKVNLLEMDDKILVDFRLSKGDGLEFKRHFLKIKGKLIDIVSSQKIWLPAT
Summary of the method: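 His-CHK1 (12.5 nM) phosphorylating 14.8 μM Chktide with 0.01 mM ATP plus 33P-γ-ATP, in 50 mM Hepes-NaOH pH 7.5 with 0.1 mg/mL BSA. Incubated with inhibitor for 40 min at 30 °C. Stopped with phosphoric acid; phosphopeptide captured on filter and counted by scintillation.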

EC50 (HT29 cells) [nM] | IC50 (CHK1) [nM] | Compound
< 100 | < 100 | CC(c1ccccc1)n1cc(C(=O)Nc2c[nH]c(=O)c(-c3cc4cc(CN5CCC(F)CC5)ccc4[nH]3)c2)cn1 (stereo not drawn) [Example 87, 1-(1-Phenyl-ethyl)-1H-pyrazole-4-carboxylic acid {5-[5-(4-fluoro-piperidin-1-ylmethyl)-1H-indol-2-yl]-6-oxo-1,6-dihydro-pyridin-3-yl}-amide]
< 100 | < 100 | O=C(Nc1c[nH]c(=O)c(-c2cc3cc(CN4CCCCC4)ccc3[nH]2)c1)c1cnn(Cc2ccccc2)c1 [Example 52, 1-Benzyl-1H-pyrazole-4-carboxylic acid [6-oxo-5-(5-piperidin-1-ylmethyl-1H-indol-2-yl)-1,6-dihydro-pyridin-3-yl]-amide]
< 100 | < 100 | C[C@@H]1CCC[C@H](C)N1Cc1ccc2[nH]c(-c3cc(NC(=O)c4cnn(Cc5ccccc5)c4)c[nH]c3=O)cc2c1 [Example 177, 1-Benzyl-1H-pyrazole-4-carboxylic acid {5-[5-(cis-2,6-dimethyl-piperidin-1-ylmethyl)-1H-indol-2-yl]-6-oxo-1,6-dihydro-pyridin-3-yl}-amide]
100 to 500 | < 100 | Cc1ccc(Cn2cc(C(=O)Nc3c[nH]c(=O)c(-c4cc5cc(CN6CCCCC6)ccc5[nH]4)c3)cn2)cc1 [Example 38, 1-(4-Methyl-benzyl)-1H-pyrazole-4-carboxylic acid [6-oxo-5-(5-piperidin-1-ylmethyl-1H-indol-2-yl)-1,6-dihydro-pyridin-3-yl]-amide]
< 100 | < 100 | CN(C)CC(C)(C)Oc1ccc2[nH]c(-c3cc(NC(=O)c4cnn(Cc5ccccc5)c4)c[nH]c3=O)cc2c1 [Example 179, 1-Benzyl-1H-pyrazole-4-carboxylic acid {5-[5-(2-dimethylamino-1,1-dimethyl-ethoxy)-1H-indol-2-yl]-6-oxo-1,6-dihydro-pyridin-3-yl}-amide]
< 100 | < 100 | C[C@@H]1CCCCN1Cc1ccc2[nH]c(-c3cc(NC(=O)c4cnn(Cc5ccccc5)c4)c[nH]c3=O)cc2c1 [Example 173, 1-Benzyl-1H-pyrazole-4-carboxylic acid {5-[5-((R)-2-methyl-piperidin-1-ylmethyl)-1H-indol-2-yl]-6-oxo-1,6-dihydro-pyridin-3-yl}-amide]
100 to 500 | < 100 | CCN(Cc1ccc2[nH]c(-c3cc(NC(=O)c4cnn(Cc5ccccc5)c4)c[nH]c3=O)cc2c1)CC(C)(C)CN(C)C [Example 176, 1-Benzyl-1H-pyrazole-4-carboxylic acid [5-(5-{[(3-dimethylamino-2,2-dimethyl-propyl)-ethyl-amino]-methyl}-1H-indol-2-yl)-6-oxo-1,6-dihydro-pyridin-3-yl]-amide]
< 100 | < 100 | CC(C)(COc1ccc2[nH]c(-c3cc(NC(=O)c4cnn(Cc5ccccc5)c4)c[nH]c3=O)cc2c1)CN1CCCCC1 [Example 185, 1-Benzyl-1H-pyrazole-4-carboxylic acid {5-[5-(2,2-dimethyl-3-piperidin-1-yl-propoxy)-1H-indol-2-yl]-6-oxo-1,6-dihydro-pyridin-3-yl}-amide]
< 100 | < 100 | C[C@@H]1CN(Cc2ccc3[nH]c(-c4cc(NC(=O)c5cnn([C@H](C)c6ccccc6)c5)c[nH]c4=O)cc3c2)C[C@H](C)O1 [Example 166]
< 100 | < 100 | CC1CCN(Cc2ccc3[nH]c(-c4cc(NC(=O)c5cnn(Cc6ccccc6)c5)c[nH]c4=O)cc3c2)CC1 [Example 78, 1-Benzyl-1H-pyrazole-4-carboxylic acid {5-[5-(4-methyl-piperidin-1-ylmethyl)-1H-indol-2-yl]-6-oxo-1,6-dihydro-pyridin-3-yl}-amide]
< 100 | < 100 | CN(C)CC(C)(C)COc1ccc2[nH]c(-c3cc(NC(=O)c4cnn(Cc5ccccc5)c4)c[nH]c3=O)cc2c1 [Example 120, 1-Benzyl-1H-pyrazole-4-carboxylic acid {5-[5-(3-dimethylamino-2,2-dimethyl-propoxy)-1H-indol-2-yl]-6-oxo-1,6-dihydro-pyridin-3-yl}-amide]
< 100 | < 100 | CCN(CC)CC1(COc2ccc3[nH]c(-c4cc(NC(=O)c5cnn(Cc6ccccc6)c5)c[nH]c4=O)cc3c2)CC1 [Example 186, 1-Benzyl-1H-pyrazole-4-carboxylic acid {5-[5-(1-diethylaminomethyl-cyclopropylmethoxy)-1H-indol-2-yl]-6-oxo-1,6-dihydro-pyridin-3-yl}-amide]
< 100 | < 100 | C[C@H]1CCCCN1Cc1ccc2[nH]c(-c3cc(NC(=O)c4cnn(Cc5ccccc5)c4)c[nH]c3=O)cc2c1 [Example 171, 1-Benzyl-1H-pyrazole-4-carboxylic acid {5-[5-((S)-2-methyl-piperidin-1-ylmethyl)-1H-indol-2-yl]-6-oxo-1,6-dihydro-pyridin-3-yl}-amide]
100 to 500 | < 100 | O=C(Nc1c[nH]c(=O)c(-c2cc3ccccc3[nH]2)c1)c1cnn(Cc2ccccc2)c1 [Example 20, 1-Benzyl-1H-pyrazole-4-carboxylic acid [5-(1H-indol-2-yl)-6-oxo-1,6-dihydro-pyridin-3-yl]-amide]
< 100 | < 100 | O=C(Nc1c[nH]c(=O)c(-c2cc3cc(CN4CCC(F)CC4)ccc3[nH]2)c1)c1cnn(Cc2ccccc2)c1 [Example 49, 1-Benzyl-1H-pyrazole-4-carboxylic acid {3-[5-(4-fluoro-piperidin-1-ylmethyl)-1H-indol-2-yl]-6-oxo-1,6-dihydro-pyridin-3-yl}-amide]

From patent publication US9604975B2, “Indolyl-pyridone derivatives having checkpoint kinase 1 inhibitory activity” (Vernalis (R&D) Ltd., priority 2009, dated 2017)
